Test results: patent US20230117034A1, “PYRAZOLOTRIAZINES” (Bayer Aktiengesellschaft, priority 2019, published 2023)

Experiments:
[1] = target: CDK12/CycK (Homo sapiens, UniProt Q9NYV4); experiment: CDK12/CycK high ATP kinase assay (TR-FRET, 2 mM ATP); type: biochemical; conditions: 2 mM ATP (high ATP); median; read-out: CDK12/CyclinK, 2 mM ATP (high ATP), IC50-[mol/l] (median)
In short: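 His-tagged human CDK12/CycK (~0.75 nM) pre-incubated 15 min with compound, then 60 min at 22 °C with 2 mM ATP and 1 µM biotinylated peptide (HEPES pH 7.5, 20 mM MgCl2). EDTA stop; phospho-Ser62 antibody/Eu anti-rabbit and streptavidin-XL665 TR-FRET, 665/620 nm ratio normalised to give IC50.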

[2] = system: CAL-120, human breast adenocarcinoma cells; experiment: Proliferation assay CAL-120 (crystal violet, 4 days); type: cell-based; conditions: Homo sapiens, CAL-120, 96 h, CAL-120 cells, median, read-out: Prolif-CAL-120, IC50-[mol/l] (median)
In short: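 Plated 4,000 cells/well, 10% FCS; 24 h later treated 0.01-10 µmol/L cpd (DMSO 0.1%), 4 d. Fix glutaraldehyde, stain 0.1% crystal violet pH 3.0, elute acetic acid, A595. Normalized to t0 plate/untreated; 4-param IC50.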

Sequence of CDK12/CycK (Q9NYV4 with tags, fused parts or gaps): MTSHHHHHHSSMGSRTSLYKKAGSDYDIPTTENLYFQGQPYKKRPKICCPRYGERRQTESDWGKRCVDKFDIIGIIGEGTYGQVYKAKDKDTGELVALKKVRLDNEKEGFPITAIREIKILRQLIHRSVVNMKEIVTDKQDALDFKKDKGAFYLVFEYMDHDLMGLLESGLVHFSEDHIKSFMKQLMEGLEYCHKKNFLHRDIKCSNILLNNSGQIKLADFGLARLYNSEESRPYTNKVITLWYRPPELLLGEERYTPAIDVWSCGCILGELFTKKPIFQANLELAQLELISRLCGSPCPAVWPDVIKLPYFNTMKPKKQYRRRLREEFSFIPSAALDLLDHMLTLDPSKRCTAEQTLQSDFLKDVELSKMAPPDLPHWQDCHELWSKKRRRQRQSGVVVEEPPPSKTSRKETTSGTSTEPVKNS
Sequence of CDK12/CycK (O75909 1-300 partner limits assumed): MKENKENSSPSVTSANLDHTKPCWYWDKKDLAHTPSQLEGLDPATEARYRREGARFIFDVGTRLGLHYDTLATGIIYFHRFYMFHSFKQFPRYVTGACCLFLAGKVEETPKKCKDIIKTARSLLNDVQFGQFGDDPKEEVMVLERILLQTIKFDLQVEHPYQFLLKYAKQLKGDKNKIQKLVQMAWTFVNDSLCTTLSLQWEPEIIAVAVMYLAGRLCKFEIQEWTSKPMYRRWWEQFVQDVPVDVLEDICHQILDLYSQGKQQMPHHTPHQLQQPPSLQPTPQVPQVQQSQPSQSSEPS

SMILES	IC50 [1] [nM]	IC50 [2] [nM]
C[C@@H]1CN(c2nc(NCc3nc4ccccc4[nH]3)n3ncc(Br)c3n2)C[C@H](C)O1 [Example 73, N-[(1H-benzimidazol-2-yl)methyl]-8-bromo-2-[(2R,6S)-2,6-dimethylmorpholin-4-yl]pyrazolo[1,5-a][1,3,5]triazin-4-amine]	664	23
Brc1cnn2c(NCc3nnc(-c4ccccc4)[nH]3)nc(N3CCCC3)nc12 [Example 64, 8-bromo-N-[(5-phenyl-4H-1,2,4-triazol-3-yl)methyl]-2-(pyrrolidin-1-yl)pyrazolo[1,5-a][1,3,5]triazin-4-amine]	5520	36.1
OC[C@H]1CCCCN1c1nc(NCc2nnc(-c3ccccc3)[nH]2)n2ncc(Br)c2n1 [Example 71, [(2R)-1-(8-bromo-4-{[(5-phenyl-4H-1,2,4-triazol-3-yl)methyl]amino}pyrazolo[1,5-a][1,3,5]triazin-2-yl)piperidin-2-yl]methanol]	4330	32
CN1CCN(c2nc(NCc3nc4cc(Cl)c(Cl)cc4[nH]3)n3ncc(C4CC4)c3n2)CC1 [Example 305, 8-cyclopropyl-N-[(5,6-dichloro-1H-benzimidazol-2-yl)methyl]-2-(4-methylpiperazin-1-yl)pyrazolo[1,5-a][1,3,5]triazin-4-amine]		4.44
CN1CCN(c2nc(NCc3nc4cc(C(F)(F)F)ccc4[nH]3)n3ncc(C4CC4)c3n2)CC1 [Example 313, 8-cyclopropyl-2-(4-methylpiperazin-1-yl)-N-{[5-(trifluoromethyl)-1H-benzimidazol-2-yl]methyl}pyrazolo[1,5-a][1,3,5]triazin-4-amine]		9.52
CCc1cnn2c(NCc3nc4c(F)c(F)ccc4[nH]3)nc(N3CCN(C)CC3)nc12.O=CO [Example 435, formic acid N-[(4,5-difluoro-1H-benzimidazol-2-yl)methyl]-8-ethyl-2-(4-methylpiperazin-1-yl)pyrazolo[1,5-a][1,3,5]triazin-4-amine]		1.76
O[C@@H]1CCN(c2nc(NCc3nc4ccccc4[nH]3)n3ncc(Br)c3n2)C1 [Example 202, (3R)-1-(4-{[(1H-benzimidazol-2-yl)methyl]amino}-8-bromopyrazolo[1,5-a][1,3,5]triazin-2-yl)pyrrolidin-3-ol]		131
CC(C)c1cnn2c(NCc3nc4ccccc4[nH]3)nc(N3CCN(C)CC3)nc12 [Example 2, N-[(1H-benzimidazol-2-yl)methyl]-2-(4-methylpiperazin-1-yl)-8-(propan-2-yl)pyrazolo[1,5-a][1,3,5]triazin-4-amine]	> 20000	31.2
CC(C)c1cnn2c(NCc3nc4ccccc4[nH]3)nc(N(C)C)nc12 [Example 3, N^4-[(1H-benzimidazol-2-yl)methyl]-N^2,N^2-dimethyl-8-(propan-2-yl)pyrazolo[1,5-a][1,3,5]triazine-2,4-diamine]	> 20000	
Fc1ccc2[nH]c(CNc3nc(N4CCOCC4)nc4c(-c5cnn(C(F)F)c5)cnn34)nc2c1F [Example 422, N-[(4,5-difluoro-1H-benzimidazol-2-yl)methyl]-8-[1-(difluoromethyl)-1H-pyrazol-4-yl]-2-(morpholin-4-yl)pyrazolo[1,5-a][1,3,5]triazin-4-amine]		6.88

Other lines, results leading:

IC50 [1] [nM]	IC50 [2] [nM]	SMILES
2590	6.58	COc1ccccc1-c1cnc(CNc2nc(N3CCOCC3)nc3c(Br)cnn23)[nH]1 [Example 87, 8-bromo-N-{[5-(2-methoxyphenyl)-1H-imidazol-2-yl]methyl}-2-(morpholin-4-yl)pyrazolo[1,5-a][1,3,5]triazin-4-amine]
10700	32.9	FC(F)(F)Oc1ccccc1-c1cnc(CNc2nc(N3CCOCC3)nc3c(Br)cnn23)[nH]1 [Example 89, 8-bromo-2-(morpholin-4-yl)-N-({5-[2-(trifluoromethoxy)phenyl]-1H-imidazol-2-yl}methyl)pyrazolo[1,5-a][1,3,5]triazin-4-amine]
> 20000	311	FC(F)(F)Oc1ccccc1-c1nnc(CNc2nc(N3CCOCC3)nc3c(Br)cnn23)[nH]1 [Example 74, 8-bromo-2-(morpholin-4-yl)-N-({5-[2-(trifluoromethoxy)phenyl]-4H-1,2,4-triazol-3-yl}methyl)pyrazolo[1,5-a][1,3,5]triazin-4-amine]
> 3770	53.2	Fc1ccccc1-c1nnc(CNc2nc(N3CCOCC3)nc3c(Br)cnn23)[nH]1 [Example 75, 8-bromo-N-{[5-(2-fluorophenyl)-4H-1,2,4-triazol-3-yl]methyl}-2-(morpholin-4-yl)pyrazolo[1,5-a][1,3,5]triazin-4-amine]
1360	14.2	FC(F)(F)c1ccccc1-c1cnc(CNc2nc(N3CCOCC3)nc3c(Br)cnn23)[nH]1 [Example 88, 8-bromo-2-(morpholin-4-yl)-N-({5-[2-(trifluoromethyl)phenyl]-1H-imidazol-2-yl}methyl)pyrazolo[1,5-a][1,3,5]triazin-4-amine]
1040	12.1	FC(F)(F)c1cccc(-c2cnc(CNc3nc(N4CCOCC4)nc4c(Br)cnn34)[nH]2)c1 [Example 83, 8-bromo-2-(morpholin-4-yl)-N-({5-[3-(trifluoromethyl)phenyl]-1H-imidazol-2-yl}methyl)pyrazolo[1,5-a][1,3,5]triazin-4-amine]
> 57100	105	Fc1cccc(-c2cnn3c(NCc4nc5ccccc5[nH]4)nc(N4CCOCC4)nc23)c1 [Example 91, N-[(1H-benzimidazol-2-yl)methyl]-8-(3-fluorophenyl)-2-(morpholin-4-yl)pyrazolo[1,5-a][1,3,5]triazin-4-amine]
6330	26.3	Cc1ccccc1-c1cnc(CNc2nc(N3CCOCC3)nc3c(Br)cnn23)[nH]1 [Example 85, 8-bromo-N-{[5-(2-methylphenyl)-1H-imidazol-2-yl]methyl}-2-(morpholin-4-yl)pyrazolo[1,5-a][1,3,5]triazin-4-amine]
2090	107	Brc1cnn2c(NCc3ncc(-c4cccnc4)[nH]3)nc(N3CCOCC3)nc12 [Example 84, 8-bromo-2-(morpholin-4-yl)-N-{[5-(pyridin-3-yl)-1H-imidazol-2-yl]methyl}pyrazolo[1,5-a][1,3,5]triazin-4-amine]
916	85.2	FC(F)(F)Oc1cccc(-c2cnc(CNc3nc(N4CCOCC4)nc4c(Br)cnn34)[nH]2)c1 [Example 82, 8-bromo-2-(morpholin-4-yl)-N-({5-[3-(trifluoromethoxy)phenyl]-1H-imidazol-2-yl}methyl)pyrazolo[1,5-a][1,3,5]triazin-4-amine]
547	32.4	Clc1ccc(-c2cnc(CNc3nc(N4CCOCC4)nc4c(Br)cnn34)[nH]2)cc1 [Example 72, 8-bromo-N-{[5-(4-chlorophenyl)-1H-imidazol-2-yl]methyl}-2-(morpholin-4-yl)pyrazolo[1,5-a][1,3,5]triazin-4-amine]
5970		CC(C)c1cnn2c(NCc3nc4ccccc4[nH]3)nc(N3CCOCC3)nc12 [Example 1, N-[(1H-benzimidazol-2-yl)methyl]-2-(morpholin-4-yl)-8-(propan-2-yl)pyrazolo[1,5-a][1,3,5]triazin-4-amine]
